The results in this text go back to ChEMBL document CHEMBL5104089, “An update into the medicinal chemistry of translocator protein (TSPO) ligands” (Eur J Med Chem, 2021).

In data set [1] the target is T1, Translocator protein (Rattus norvegicus, UniProt P16257). Put plainly: Displacement of [3H]-PK11195 from TSPO receptor in rat heart microsomes incubated for 15 mins by scintillation method. Further details: species or system Microsome.
A short description of data set [2]: Displacement of [3H]-Ro51788 from CBR receptor in rat brain microsomes incubated for 60 mins by scintillation method. Further details: species or system Microsome.
For data set [3], the target named is T1, Translocator protein. As to the kind of experiment: Displacement of [3H]-Ro54864 from TSPO receptor in rat heart microsomes incubated for 45 mins by scintillation method. Further details: species or system Microsome.
The nature of data set [4]: Selectivity ratio of Ki for CBR (unknown origin) to Ki for TSPO receptor in Wistar rat brain.
Data set [5] is described as follows: Binding affinity to CBR (unknown origin). Details: species or system Homo sapiens.
Data set [6] concerns the target T1, Translocator protein. As to the kind of experiment: Displacement of [3H]-flunitrazepam from TSPO receptor in Wistar rat brain without cerebellum incubated for 90 mins by liquid scintillation counter analysis. Type of data set: tissue-based.
For data set [7], the target named is T2, Translocator protein (Homo sapiens, UniProt P30536). As to the kind of experiment: Inhibition of TSPO (unknown origin) in mouse MA-10 cells assessed as increase in steroid steroidogenesis.
Data set [8] in a line: Lipophilicity, logD of the compound in 1-octanol and phosphate buffer in pH 7.4 incubated for 3 mins by shake flask method. In kind it is physicochemical. Conditions: 1-octanol/phosphate buffer.
The target in data set [9] is T1, Translocator protein. Put plainly: Displacement of [3H]-PK11195 from TSPO receptor in Sprague-Dawley rat brain incubated for 30 mins by […] analysis. Type of data set: tissue-based.
A short description of data set [10]: Lipophilicity, logD of the compound in 1-octanol and phosphate buffer in pH 7.4 incubated for 3 mins. The settings on record: 1-octanol/phosphate buffer. In kind it is physicochemical.
Data set [11] can be described thus: Lipophilicity, logD of the compound. Type of data set: physicochemical. The settings on record: octanol/water.
Data set [12] in a line: Stability of the compound in human serum assessed as intact compound level measured after 24 hrs by iTLC-SG analysis. Type of data set: ADME, cell-free. Conditions: read-out: Stability.
Data set [13] in a line: Stability of the compound assessed as intact compound level measured after 24 hrs by iTLC-SG analysis. In kind it is physicochemical. The settings on record: read-out: Stability.
The nature of data set [14]: Displacement of [3H]flunitrazepam from CBR receptor in rat brain cerebral cortex by liquid scintillation spectrometer method. Type of data set: tissue-based.
For data set [15], the target named is T2, Translocator protein. As to the kind of experiment: Binding affinity to TSPO (unknown origin) relative to control. Conditions: tested as the 11C-labelled form.
Data set [16] concerns the target T2, Translocator protein. As to the kind of experiment: Inhibition of TSPO receptor (unknown origin).
The target of data set [17] is T1, Translocator protein. Put plainly: Binding affinity to TSPO in Sprague-Dawley rat brain. In kind it is tissue-based.
Data set [18] addresses T2, Translocator protein. Put plainly: Displacement of [3H]-PK11195 from TSPO receptor in human Leucocyte incubated for 30 mins by beta-counter analysis. Type of data set: cell-based.

Structures are written as SMILES.

T1 sequence (P16257 whole entry, looked up): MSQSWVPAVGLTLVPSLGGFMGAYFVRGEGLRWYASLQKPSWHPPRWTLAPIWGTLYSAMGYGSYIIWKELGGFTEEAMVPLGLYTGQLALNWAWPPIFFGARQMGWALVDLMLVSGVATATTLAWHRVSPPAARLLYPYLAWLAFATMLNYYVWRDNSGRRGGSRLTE
T2 sequence (P30536 whole entry): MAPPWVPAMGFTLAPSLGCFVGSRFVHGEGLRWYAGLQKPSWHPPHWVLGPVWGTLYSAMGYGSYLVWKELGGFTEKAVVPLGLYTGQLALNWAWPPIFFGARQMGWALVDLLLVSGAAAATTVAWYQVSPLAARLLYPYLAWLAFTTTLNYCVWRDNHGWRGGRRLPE

For the molecule `CCN(CC)C(=O)Cn1c(=O)n2cc(-c3ccc(OC)c(OC)c3)nc2c2ccccc21`, the IC50 is 150 nM in [1], more than 10000 nM in data set [2] and 500 nM in data set [3].

On to `CCCN(CCC)C(=O)Cc1c(-c2ccc(O)cc2)nc2ccc(Cl)cn12`, for which the Ratio Ki in [4] came out at 21.1. For the same molecule, the figures for the inhibition constant Ki in [5] and in data set [6] were 1.05 nM and 22.2 nM, respectively. The half-maximal effective concentration (EC50) in data set [7] is 6990 nM.

As to `CCCN(CCC)C(=O)Cn1c(=O)n2cc(-c3ccccc3)nc2c2ccccc21`, the IC50 in data set [1] was 11 nM; in data set [2] it was more than 10000 nM; in data set [3], 12 nM.

`CCN(CC)C(=O)Cn1c(=O)n2cc(-c3ccccc3)nc2c2ccccc21`: the concentration for half-maximal inhibition (IC50) in data set [1] is 400 nM; in data set [2] it was more than 10000 nM; in [3], 80 nM.

Take `CN(C(=O)Cn1c(=O)oc2ccc(-c3ccc(OCC[18F])cc3)cc21)c1ccccc1`: the pH-dependent lipophilicity (logD) at 0.05 h in data set [8] came out at 3.43. This molecule also yielded a Ki in data set [9] of 6.6 nM.

Take `CCCN(CCC)C(=O)Cc1c(-c2ccc(OC)cc2)nc2c(Cl)cc(Cl)cn12`: the EC50 in data set [7] was determined as 571 nM.

Consider `CC(=O)N(Cc1ccccc1OC[18F])c1cnccc1Oc1ccccc1`, for which the logD at 0.05 h in data set [10] was 2.85.

`COc1ccc(-c2ccc3oc(=O)n(CC(=O)N(C)c4ccccc4)c3c2)cc1`: in [11], the log distribution coefficient (logD) worked out at 3.5.

In turn, `CCN(CC)C(=O)Cn1c(=O)n2nc(-c3ccccc3)nc2c2ccccc21` registered an IC50 in data set [1] of 1700 nM.

On to `COC(=O)C(Cc1c[nH]c2ccccc12)NC(=O)Cn1c(=O)oc2ccc(Br)cc21` (configuration not stated), for which the remaining at 24 h was more than 91% in [12] and more than 94% in data set [13].

Take `CCCN(CCC)C(=O)Cc1c(-c2ccc(Cl)cc2)nc2c(Cl)cc(Cl)cn12` [ALPDEM]: the EC50 in data set [7] is 337 nM.

`CCCN(CCC)C(=O)Cc1c(-c2ccc(OC)cc2)nc2ccc(Cl)cn12`: in data set [4], the Ratio Ki came to 210. For the same molecule, the Ki in data set [5] was determined as 105 nM; in [6], 0.5 nM. Also, the EC50 in data set [7] was 15900 nM.

Turning to `COc1ccc(OC)c(CN(C(C)=O)c2cc(F)ccc2Oc2ccccc2)c1`, the figures for the IC50 in [14] and in data set [16] were more than 1000 nM and 0.28 nM, respectively. This molecule registered an Activity in [15] of 80%.

Take `CCCN(CCC)C(=O)Cc1c(-c2ccc(Cl)cc2)nc2c(NCC(=O)O)cccn12`: in data set [7], the EC50 worked out at 21200 nM.

In turn, `CC(=O)N(Cc1ccccc1OC(C)C)c1ccc(Cl)cc1Oc1ccccc1` displayed an IC50 in data set [14] of more than 1000 nM.

Regarding `CCN(CC)C(=O)Cn1c(=O)n2c(C)c(-c3ccccc3)nc2c2ccccc21`, the IC50 in [1] is 29 nM; in data set [2], more than 10000 nM; in data set [3], 9 nM.

With `CCCN(CCC)C(=O)Cc1c(-c2ccc(OCC(=O)O)cc2)nc2c(Cl)cc(Cl)cn12`, the EC50 in data set [7] stood at 39000 nM.

In the case of `CN1C(=O)CN=C(c2ccccc2F)c2cc([N+](=O)[O-])ccc21` [FLUNITRAZEPAM], affinity in data set [5] was put at a Ki of 5.11 nM.

Turning to `CC(=O)N(C)c1ccccc1Oc1ccccc1`, 6.7 nM corresponded to half-maximal inhibition in data set [16] (IC50).

In data set [11], `CN(C(=O)Cn1c(=O)oc2ccc(-c3cccc([N+](=O)[O-])c3)cc21)c1ccccc1O[11CH3]` registered a pH-dependent lipophilicity (logD) of 2.08. This molecule gave an inhibitory constant (Ki) in [17] of 4.9 nM.

`CC(=O)N(Cc1ccccc1O[11CH3])c1cnccc1Oc1ccccc1` yielded an IC50 in [18] of 8.07 nM. Also, in data set [10], the log distribution coefficient (logD) at 0.05 h amounted to 2.82.

As for `Oc1nc2ccccc2c2nc(-c3ccccc3)nn12`, the IC50 is 9800 nM in [1] and 15 nM in data set [3].

For the molecule `CCC(C)N(C)C(=O)c1cc2ccccc2c(-c2ccccc2Cl)n1` (configuration not stated) [PK-11195], the Ki in data set [5] is more than 100000 nM.

As for `CCCN(CCC)C(=O)Cc1c(-c2ccc(Cl)cc2)nc2ccc(Cl)cn12` [ALPIDEM], in data set [4], the Ratio Ki was 3.29. Also, the Ki in [5] came to 1 nM; in [6] it was 7.9 nM.
